Patent publication US20220401331A1, “PERSONAL CLEANSING COMPOSITIONS, METHODS AND USES” (The Procter & Gamble Company, priority 2021, published 2022)

Experiment: Observations of appearance, structure and phase separation (Centrifuge Test, standing)
Format: physicochemical
Conditions: gel structure, phase separation

In the case of “non-ethoxylated sodium tridecyl sulfate [ST0S]”, the observations was “did not form lamellar phase”.
